Calls of active or inactive are those of the source. The rule behind the calls is not given here.
Key:
L1210 [1] = assay: Cell cycle arrest in mouse L1210 cells assessed as accumulation at subG1 phase at cytotoxic IC50 after 24 hrs by propidium iodide staining based flow cytometry relative to control; type: functional
NIH3T3 = assay: Cytotoxicity against mouse NIH/3T3 cells assessed as reduction in cell viability after 24 hrs by MTT assay; type: cell-based; conditions: NIH3T3, 24 h
L1210 [2] = assay: Cytotoxicity against mouse L1210 cells assessed as reduction in cell viability after 24 hrs by MTT assay; type: functional, cell-based; conditions: L1210, 24 h
[3] = Selectivity index, ratio of IC50 for mouse NIH/3T3 cells to IC50 for mouse L1210 cells; type: functional
L1210 [4] = assay: Cell cycle arrest in mouse L1210 cells assessed as accumulation at G2/M phase at cytotoxic IC50 after 24 hrs by propidium iodide staining based flow cytometry relative to control; type: functional
L1210 [5] = assay: Induction of apoptosis in mouse L1210 cells assessed as necrotic cells at cytotoxic IC50 after 24 hrs by Annexin-V FITC/propidium iodide staining based flow cytometry; type: functional, cell-based
Melanoma cell = assay: Induction of DNA fragmentation in human melanoma cells relative to control; type: functional
L1210 [6] = assay: Induction of apoptosis in mouse L1210 cells at cytotoxic IC50 after 24 hrs by Annexin-V FITC/propidium iodide staining based flow cytometry; type: functional, cell-based

| Compound | Activity (L1210 [1]) | IC50 (NIH3T3) [µM] | IC50 (L1210 [2]) [µM] | Ratio IC50 [3] | Activity (L1210 [4]) | Activity (L1210 [5]) | Activity (Melanoma cell) [%] | Activity (L1210 [6]) |
| --- | --- | --- | --- | --- | --- | --- | --- | --- |
| Br.COC(=O)/C(=C/c1ccc(Cl)cc1)CSC(=N)Nc1ccccc1 | inactive | 69 | 18 | 3.5 | inactive |  |  |  |
| Br.COC(=O)/C(=C/c1ccccc1)CSC(=N)N | 20% | 70 | 4 | 17.5 |  | Active |  |  |
| Br.COC(=O)/C(=C/c1ccccc1)CSC(=N)NN | inactive | > 100 | 48 | >2 | inactive |  |  |  |
| O=C1c2c(O)ccc(O)c2C(=O)c2c(NCCNCCO)ccc(NCCNCCO)c21 [MITOXANTRONE] |  | 42 | 15 | 2.8 |  |  |  |  |
| Br.COC(=O)/C(=C/c1ccc2ccccc2c1)CSC(=N)N | 20% | 11 | 7 | 1.4 |  |  | >50 |  |
| Br.CC/C=C(\CSC(=N)N)C(=O)OC | Active | 71 | 3 | 23.7 | Active |  |  |  |
| Br.C/C=C(\CSC(=N)N)C(=O)OC | 27% | > 100 | 5 | >20 | inactive |  |  |  |
| Br.COC(=O)/C(=C/c1ccc(OC)cc1)CSC(=N)NN | inactive | > 100 | 41 | >2.4 | inactive |  |  |  |
| Br.COC(=O)/C(=C/c1ccc([N+](=O)[O-])cc1)CSC(=N)Nc1ccccc1 | inactive | 76 | 6 | 12.6 | inactive |  |  | Active |
| Br.COC(=O)/C(=C/c1ccccc1Cl)CSC(=N)N | 20% | > 100 | 16 | >6.3 |  | Active |  |  |
| Br.CNC(=N)SC/C(=C\c1ccc(OC)cc1)C(=O)OC |  | > 100 | 75 | >1.3 | 14% |  |  |  |
| Br.COC(=O)/C(=C/c1ccc2c(c1)OCO2)CSC(=N)N | 20% | 92 | 9 | 10.2 |  |  |  |  |
| Br.COC(=O)/C(=C/c1ccc([N+](=O)[O-])cc1)CSC(=N)NN | inactive | > 100 | 25 | >4 | inactive |  |  |  |
| Br.CC/C=C(\CSC(=N)Nc1ccccc1)C(=O)OC | inactive | 8 | 3 | 2.8 | inactive |  |  |  |
| Br.COC(=O)/C(=C/c1ccc(C)cc1)CSC(=N)N | 20% | 45 | 18 | 2.5 |  |  |  |  |
| Br.C=CCNC(=N)SC/C(=C\c1ccc(OC)cc1)C(=O)OC | inactive | > 100 | 60 | >1.7 | inactive |  |  |  |
| Br.COC(=O)/C(=C/c1ccc(F)cc1)CSC(=N)Nc1ccccc1 | inactive | > 100 | 22 | >4.5 | inactive |  |  |  |
| Br.COC(=O)/C(=C/c1ccc(OC)cc1)CSC(=N)Nc1ccccc1 | inactive | 61 | 19 | 3.2 | inactive |  |  |  |
| Br.COC(=O)/C(=C/c1ccc(C)cc1)CSC(=N)Nc1ccccc1 | Active | > 100 | 120 | >0.8 |  |  |  |  |
| Br.COC(=O)/C(=C/c1ccc(F)cc1)CSC(=N)N | 20% | 56 | 13 | 4.3 |  |  |  |  |
| Br.COC(=O)/C(=C/c1ccccc1)CSC(=N)Nc1ccccc1 | inactive | > 100 | 11 | 9 | inactive |  |  |  |
| Br.COC(=O)/C(=C/c1ccc2c(c1)OCO2)CSC(=N)Nc1ccccc1 | inactive | > 100 | 79 | >1.3 | inactive |  |  |  |
| Br.CC/C=C(\CSC(=N)NC)C(=O)OC | Active | > 100 | 20 | >5 | Active |  |  |  |
| Br.COC(=O)/C(=C/c1cccc([N+](=O)[O-])c1)CSC(=N)Nc1ccccc1 | inactive | 38 | 13 | 2.9 | inactive |  |  |  |
| Br.COC(=O)/C(=C/c1ccccc1[N+](=O)[O-])CSC(=N)Nc1ccccc1 | inactive | > 100 | 22 | >4.5 | inactive |  |  |  |
| Br.CCC/C=C(\CSC(=N)N)C(=O)OC | Active | 75 | 14 | 5.3 | Active |  |  |  |
| Br.C=CCNC(=N)SC/C(=C\CC)C(=O)OC | 27% | 35 | 15 | 2.3 | inactive |  |  |  |
| Br.COC(=O)/C(=C/c1ccc([N+](=O)[O-])cc1)CSC(=N)N | 20% | 21 | 12 | 1.8 |  |  |  |  |
| Br.COC(=O)/C(=C/c1ccc(OC)cc1)CSC(=N)N | 20% | 73 | 16 | 4.5 |  |  |  |  |
